From the NIST ThermoML archive (doi:10.1016/j.jct.2015.09.022)

Test: xn = mol fraction of the nth substance listed
Conditions: 100.7 kPa, Liquid; for viscosity: Falling or rolling sphere viscometry; for speed of sound: Frequency=3 MHz, Sing-around technique in a fixed-path interferometer; for mass density: Vibrating tube method

CCCC[n+]1ccn(C)c1.O=S(=O)([N-]S(=O)(=O)C(F)(F)F)C(F)(F)F + CCCCOC(C)=O
Conditions | mass density [kg/m3] | speed of sound [m/s] | viscosity [mPa·s]
298.15 K, x1 = 0.0252 | – | 1187.2 | –
298.15 K, x1 = 0.0521 | – | 1185.1 | –
298.15 K, x1 = 0.0754 | – | 1183.4 | –
298.15 K, x1 = 0.11 | 1002.7 | 1182 | 1.65
298.15 K, x1 = 0.2089 | 1091.17 | 1182.3 | 3.16
298.15 K, x1 = 0.2993 | 1157.05 | 1184.9 | 5.48
298.15 K, x1 = 0.393 | 1214.08 | 1189 | 8.7
298.15 K, x1 = 0.4847 | 1261.35 | 1194 | 13
298.15 K, x1 = 0.5739 | 1300.9 | 1199.2 | 18.01
298.15 K, x1 = 0.687 | 1344.53 | 1206.6 | 25.24
298.15 K, x1 = 0.7791 | 1375.41 | 1212.7 | 31.73
298.15 K, x1 = 0.9056 | 1412.56 | 1221.6 | 41.39
298.15 K, x1 = 1 | 1436.82 | 1227.8 | 50.04
303.15 K, x1 = 0.0252 | – | 1167.5 | –
303.15 K, x1 = 0.0521 | – | 1165.2 | –
303.15 K, x1 = 0.0754 | – | 1164.2 | –
303.15 K, x1 = 0.11 | 997.7 | 1163.8 | 1.32
303.15 K, x1 = 0.2089 | 1086.13 | 1165.8 | 2.47
303.15 K, x1 = 0.2993 | 1152.05 | 1169.6 | 4.19
303.15 K, x1 = 0.393 | 1209.12 | 1174.7 | 6.7
303.15 K, x1 = 0.4847 | 1256.55 | 1180.5 | 10
303.15 K, x1 = 0.5739 | 1296 | 1186.3 | 13.81
303.15 K, x1 = 0.687 | 1339.68 | 1194.3 | 19.35
303.15 K, x1 = 0.7791 | 1370.57 | 1201.8 | 25.04
303.15 K, x1 = 0.9056 | 1407.82 | 1211.6 | 33.3
303.15 K, x1 = 1 | 1431.98 | 1217.5 | 40.72
308.15 K, x1 = 0.0252 | – | 1147.2 | –
308.15 K, x1 = 0.0521 | – | 1146.7 | –
308.15 K, x1 = 0.0754 | – | 1146.3 | –
308.15 K, x1 = 0.11 | 992.65 | 1145.8 | 1.08
308.15 K, x1 = 0.2089 | 1081.08 | 1149.4 | 2
308.15 K, x1 = 0.2993 | 1147.06 | 1154.5 | 3.3
308.15 K, x1 = 0.393 | 1204.12 | 1160.6 | 5.35
308.15 K, x1 = 0.4847 | 1251.44 | 1167.2 | 7.85
308.15 K, x1 = 0.5739 | 1291.12 | 1173.6 | 10.8
308.15 K, x1 = 0.687 | 1335.03 | 1182.2 | 15.26
308.15 K, x1 = 0.7791 | 1365.95 | 1189.1 | 20
308.15 K, x1 = 0.9056 | 1403.1 | 1199.2 | 27.56
308.15 K, x1 = 1 | 1427.16 | 1205.2 | 33.73
313.15 K, x1 = 0.0252 | – | 1128.5 | –
313.15 K, x1 = 0.0521 | – | 1127 | –
313.15 K, x1 = 0.0754 | – | 1127.2 | –
313.15 K, x1 = 0.11 | 987.68 | 1127.8 | 0.96
313.15 K, x1 = 0.2089 | 1076.25 | 1133.2 | 1.72
313.15 K, x1 = 0.2993 | 1142.16 | 1139.5 | 2.81
313.15 K, x1 = 0.393 | 1199.24 | 1146.2 | 4.65
313.15 K, x1 = 0.4847 | 1246.74 | 1153.9 | 6.64
313.15 K, x1 = 0.5739 | 1286.33 | 1161 | 8.59
313.15 K, x1 = 0.687 | 1330.2 | 1170.2 | 12.16
313.15 K, x1 = 0.7791 | 1361.33 | 1178.5 | 15.96
313.15 K, x1 = 0.9056 | 1398.49 | 1188.4 | 22.61
313.15 K, x1 = 1 | 1422.37 | 1194.4 | 28.28
318.15 K, x1 = 0.0252 | – | 1108.2 | –
318.15 K, x1 = 0.0521 | – | 1109.2 | –
318.15 K, x1 = 0.0754 | – | 1109.6 | –
318.15 K, x1 = 0.11 | 982.52 | 1110 | 0.8
318.15 K, x1 = 0.2089 | 1071.24 | 1117.1 | 1.49
318.15 K, x1 = 0.2993 | 1137.09 | 1124.6 | 2.35
318.15 K, x1 = 0.393 | 1194.31 | 1132 | 3.96
318.15 K, x1 = 0.4847 | 1241.85 | 1140.8 | 5.5
318.15 K, x1 = 0.5739 | 1281.71 | 1148.4 | 6.92
318.15 K, x1 = 0.687 | 1325.49 | 1159.3 | 9.96
318.15 K, x1 = 0.7791 | 1356.79 | 1168 | 13.17
318.15 K, x1 = 0.9056 | 1393.84 | 1178.5 | 18.87
318.15 K, x1 = 1 | 1417.6 | 1184.5 | 24.01
323.15 K, x1 = 0.0252 | – | 1089.6 | –
323.15 K, x1 = 0.0521 | – | 1090.2 | –
323.15 K, x1 = 0.0754 | – | 1091.3 | –
323.15 K, x1 = 0.11 | 977.62 | 1092.3 | 0.83
323.15 K, x1 = 0.2089 | 1066.34 | 1101.2 | 1.37
323.15 K, x1 = 0.2993 | 1132.21 | 1109.9 | 2
323.15 K, x1 = 0.393 | 1189.38 | 1118.7 | 2.93
323.15 K, x1 = 0.4847 | 1236.98 | 1127.9 | 4.14
323.15 K, x1 = 0.5739 | 1276.92 | 1136 | 5.48
323.15 K, x1 = 0.687 | 1320.8 | 1147.5 | 8.24
323.15 K, x1 = 0.7791 | 1352.11 | 1155.7 | 10.74
323.15 K, x1 = 0.9056 | 1389.18 | 1166.3 | 15.82
323.15 K, x1 = 1 | 1412.86 | 1171.3 | 20.32
